For data set [1] the following is noted: healthy volunteers, 1 mg single oral dose.
The conditions of data set [2]: cited from earlier work.
For data set [3] the following is noted: cited from earlier work. This is another data set of the same source.

Take `C#CCN[C@@H]1CCc2ccccc21` [rasagiline, Rasagiline]: the “adverse drug reactions (AEs causally related to rasagiline intake)” value in data set [1] is on record as “Only one AE (headache)”. In addition, in data set [2], the “capacity to cross the blood-brain barrier” value is listed as “high capacity to cross the blood-brain barrier”, the “elimination half-life (t1/2)” value was 36 to 120 min, the oral bioavailability is 36% and the plasma protein binding is 60–70%. For the same compound, in data set [2], the urine elimination is on record as 62.6%. For the same compound, the “tmax (time to reach Cmax)” value in data set [2] (oral tablet) is on record as “approximately 0.5 h”. For the same compound, in data set [3], the water solubility result is recorded as “poorly water-soluble”.

The values are drawn from paper PMC9610285 (Pharmaceutics, 2022).
